Here are results for 11 compounds from ChEMBL document CHEMBL6177972 (J Nat Prod, 2025).

Usually IC50 stands for the concentration needed to halve the response being measured.

Holding throughout (type): functional, cell-based
For one assay, the system named is K562. Briefly: Anticancer activity against human K562 cells assessed as cell growth inhibition incubated for 4 days by MTT assay. To be noted: K562, 96 h. (Tetrazolium assays rely on reduction of a dye to a coloured formazan, in cell work by metabolically active cells.)
Assay [1] can be described thus: Anticancer activity against human MM649 cells assessed as cell growth inhibition incubated for 4 days by MTT assay. To be noted: MM649, 96 h.
In a further assay the test system is HeLa. Briefly: Anticancer activity against human HeLa cells assessed as cell growth inhibition incubated for 4 days by MTT assay. To be noted: 96 h.

As to `CCCCCCCCCCCCC[C@H]1CC(=O)C[C@@]2(C[C@@H]3OC(=O)C=C[C@@H]3O2)O1`, the IC50 in the assay on K562 was found to be 11.9 µM; in assay [1], 3.1 µM; in the assay with HeLa, 3.9 µM.

Regarding `CCCCCCCCCCCCC[C@H]1C[C@H](OC(C)=O)C[C@@]2(C[C@@H]3OC(=O)C=C[C@@H]3O2)O1`, the IC50 with K562 worked out at 10.5 µM; in assay [1], 1.9 µM; in the assay on HeLa, 2.3 µM.

In the case of `O=C1C=C[C@@H]2O[C@]3(C[C@@H](O)C[C@H](C[C@@H](O)CCCCCCCCc4ccc5c(c4)OCO5)O3)C[C@@H]2O1`, the IC50 amounted to 25.8 µM in the assay on K562, 14.9 µM in assay [1] and 18.1 µM in the assay on HeLa.

Turning to `CC(=O)O[C@H]1C[C@H](C[C@@H](O)CCCCCCCCc2ccc3c(c2)OCO3)O[C@@]2(C1)C[C@@H]1OC(=O)C=C[C@@H]1O2`, the IC50 in the assay with K562 turned out to be 39.6 µM; in assay [1], 24.5 µM; with HeLa, 27.1 µM.

For the compound `O=C1C[C@H](CCCCCCCCc2ccc3c(c2)OCO3)O[C@@]2(C1)C[C@@H]1OC(=O)C=C[C@@H]1O2`, the concentration for half-maximal inhibition (IC50) with K562 was 16.6 µM; in assay [1] it was 5.9 µM; in the assay on HeLa, 5.9 µM.

With `CCCCCCCCCCCCC[C@H](O)C[C@H]1C[C@H](O)C[C@@]2(C[C@@H]3OC(=O)C=C[C@@H]3O2)O1`, the IC50 was determined as 20.3 µM in the assay with K562, 3.3 µM in assay [1] and 5.1 µM in the assay on HeLa.

As for `O=C1C=C[C@@H]2O[C@]3(C[C@@H](O)C[C@H](CCCCCCCCc4ccc5c(c4)OCO5)O3)C[C@@H]2O1`, the IC50 was found to be 25.1 µM in the assay on K562, 10.8 µM in assay [1] and 13.6 µM with HeLa.

As for `COc1cccc2c1C(=O)c1c(O)c3c(c(O)c1C2=O)C[C@@](O)(C(=O)CO)C[C@@H]3O[C@H]1C[C@H](N)[C@H](O)[C@H](C)O1` [DOXORUBICIN], the values for the IC50 (in the assay with K562; in assay [1]) were 0.12 µM and 0.05 µM, respectively.

For `O=C1C=C[C@H](O)[C@H](CCCCCCCCc2ccc3c(c2)OCO3)O1`, the half-maximal inhibitory concentration (IC50) in the assay with K562 is 13.6 µM; in assay [1] it was 7.6 µM; with HeLa, 5.6 µM.

In the case of `CC(=O)O[C@H]1C[C@H](CCCCCCCCc2ccc3c(c2)OCO3)O[C@@]2(C1)C[C@@H]1OC(=O)C=C[C@@H]1O2`, the IC50 in the assay with K562 is 13.5 µM; in assay [1], 3.9 µM; in the assay on HeLa, 4.5 µM.

With `CCCCCCCCCCCCC[C@H]1C[C@H](O)C[C@@]2(C[C@@H]3OC(=O)C=C[C@@H]3O2)O1`, the half-maximal inhibitory concentration (IC50) worked out at 15.6 µM in the assay on K562, 2.7 µM in assay [1] and 4.2 µM in the assay with HeLa.
